Legend:
Test in all cases: relative viability (nuclei count vs DMSO), 5 days (fraction); higher = more cells survive
Gemcitabine = compound: Nc1ccn([C@@H]2O[C@H](CO)[C@@H](O)C2(F)F)c(=O)n1 [Gemcitabine]
Summary of the method: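 Nuclei counted with MetaXpress define viability as the ratio of treated to vehicle wells, given as a median across plates. The lung cancer cell lines were in 1536-well plates, pinned with five √10-spaced library-drug doses and imaged at 4× after 5 days and Hoechst staining. Plates passed with control CV below 25% and at least one doubling.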

Gemcitabine + Bortezomib = compound: Nc1ccn([C@@H]2O[C@H](CO)[C@@H](O)C2(F)F)c(=O)n1 [Gemcitabine] + CC(C)C[C@H](NC(=O)[C@H](Cc1ccccc1)NC(=O)c1cnccn1)B(O)O [Bortezomib] (partner 0.002 µM)
Summary of the method: (§1)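 After 5 days of treatment, lung cancer cells in 1536-well plates were fixed and stained in a single step (final 0.05% Triton X-100, 1% formaldehyde, 1 ug/ml Hoechst) and their nuclei counted on 4× images. Treatment had been applied by pin tool the day after seeding as one drug alone or as a fixed anchor-drug dose with five library-drug doses (not always all listed) in √10 steps. Relative viability is the nuclei count of treated wells divided by that of vehicle wells, and values are medians of duplicate plates.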

Gemcitabine + Olaparib = compound: Nc1ccn([C@@H]2O[C@H](CO)[C@@H](O)C2(F)F)c(=O)n1 [Gemcitabine] + O=C(c1cc(Cc2n[nH]c(=O)c3ccccc23)ccc1F)N1CCN(C(=O)C2CC2)CC1 [Olaparib] (partner 8 µM)
Summary of the method: as §1

Gemcitabine + Lapatinib = compound: Nc1ccn([C@@H]2O[C@H](CO)[C@@H](O)C2(F)F)c(=O)n1 [Gemcitabine] + CS(=O)(=O)CCNCc1ccc(-c2ccc3ncnc(Nc4ccc(OCc5cccc(F)c5)c(Cl)c4)c3c2)o1 [Lapatinib] (partner 2 µM)
Summary of the method: as §1

Gemcitabine + Foretinib = compound: Nc1ccn([C@@H]2O[C@H](CO)[C@@H](O)C2(F)F)c(=O)n1 [Gemcitabine] + COc1cc2c(Oc3ccc(NC(=O)C4(C(=O)Nc5ccc(F)cc5)CC4)cc3F)ccnc2cc1OCCCN1CCOCC1 [Foretinib] (partner 0.25 µM)
Summary of the method: as §1

Gemcitabine + Crizotinib = compound: Nc1ccn([C@@H]2O[C@H](CO)[C@@H](O)C2(F)F)c(=O)n1 [Gemcitabine] + C[C@@H](Oc1cc(-c2cnn(C3CCNCC3)c2)cnc1N)c1c(Cl)ccc(F)c1Cl [Crizotinib] (partner 1 µM)
Summary of the method: as §1

Gemcitabine + Navitoclax = compound: Nc1ccn([C@@H]2O[C@H](CO)[C@@H](O)C2(F)F)c(=O)n1 [Gemcitabine] + CC1(C)CCC(c2ccc(Cl)cc2)=C(CN2CCN(c3ccc(C(=O)NS(=O)(=O)c4ccc(N[C@H](CCN5CCOCC5)CSc5ccccc5)c(S(=O)(=O)C(F)(F)F)c4)cc3)CC2)C1 [Navitoclax] (partner 0.5 µM)
Summary of the method: as §1

Gemcitabine + Linsitinib = compound: Nc1ccn([C@@H]2O[C@H](CO)[C@@H](O)C2(F)F)c(=O)n1 [Gemcitabine] + C[C@]1(O)C[C@@H](c2nc(-c3ccc4ccc(-c5ccccc5)nc4c3)c3c(N)nccn32)C1 [Linsitinib] (partner 1 µM)
Summary of the method: as §1

Gemcitabine + Alpelisib = compound: Nc1ccn([C@@H]2O[C@H](CO)[C@@H](O)C2(F)F)c(=O)n1 [Gemcitabine] + Cc1nc(NC(=O)N2CCC[C@H]2C(N)=O)sc1-c1ccnc(C(C)(C)C(F)(F)F)c1 [Alpelisib] (partner 2 µM)
Summary of the method: as §1

Gemcitabine + Pictilisib = compound: Nc1ccn([C@@H]2O[C@H](CO)[C@@H](O)C2(F)F)c(=O)n1 [Gemcitabine] + CS(=O)(=O)N1CCN(Cc2cc3nc(-c4cccc5[nH]ncc45)nc(N4CCOCC4)c3s2)CC1 [Pictilisib] (partner 1 µM)
Summary of the method: as §1

Gemcitabine + Phenformin = compound: Nc1ccn([C@@H]2O[C@H](CO)[C@@H](O)C2(F)F)c(=O)n1 [Gemcitabine] + N=C(N)NC(=N)NCCc1ccccc1 [Phenformin] (partner 250 µM)
Summary of the method: as §1

Gemcitabine + Decitabine = compound: Nc1ccn([C@@H]2O[C@H](CO)[C@@H](O)C2(F)F)c(=O)n1 [Gemcitabine] + Nc1ncn([C@H]2C[C@H](O)[C@@H](CO)O2)c(=O)n1 [Decitabine] (partner 2 µM)
Summary of the method: as §1

Calu-6
relative viability (Gemcitabine; 0.001 µM): 0.975
relative viability (Gemcitabine; 0.003162 µM): 0.649
relative viability (Gemcitabine; 0.01 µM): 0.33
relative viability (Gemcitabine; 0.03162 µM): 0.147
relative viability (Gemcitabine; 0.1 µM): 0.129
relative viability (Gemcitabine + Bortezomib; first compound 0.001 µM): 1.04
relative viability (Gemcitabine + Bortezomib; first compound 0.003162 µM): 0.57
relative viability (Gemcitabine + Bortezomib; first compound 0.01 µM): 0.26
relative viability (Gemcitabine + Bortezomib; first compound 0.03162 µM): 0.167
relative viability (Gemcitabine + Bortezomib; first compound 0.1 µM): 0.159
relative viability (Gemcitabine + Olaparib; first compound 0.001 µM): 0.529
relative viability (Gemcitabine + Olaparib; first compound 0.003162 µM): 0.465
relative viability (Gemcitabine + Olaparib; first compound 0.01 µM): 0.24
relative viability (Gemcitabine + Olaparib; first compound 0.03162 µM): 0.119
relative viability (Gemcitabine + Olaparib; first compound 0.1 µM): 0.0919
relative viability (Gemcitabine + Lapatinib; first compound 0.001 µM): 1.03
relative viability (Gemcitabine + Lapatinib; first compound 0.003162 µM): 0.799
relative viability (Gemcitabine + Lapatinib; first compound 0.01 µM): 0.348
relative viability (Gemcitabine + Lapatinib; first compound 0.03162 µM): 0.167
relative viability (Gemcitabine + Lapatinib; first compound 0.1 µM): 0.126
relative viability (Gemcitabine + Foretinib; first compound 0.001 µM): 0.847
relative viability (Gemcitabine + Foretinib; first compound 0.003162 µM): 0.566
relative viability (Gemcitabine + Foretinib; first compound 0.01 µM): 0.403
relative viability (Gemcitabine + Foretinib; first compound 0.03162 µM): 0.0993
relative viability (Gemcitabine + Foretinib; first compound 0.1 µM): 0.0677
relative viability (Gemcitabine + Crizotinib; first compound 0.001 µM): 0.784
relative viability (Gemcitabine + Crizotinib; first compound 0.003162 µM): 0.585
relative viability (Gemcitabine + Crizotinib; first compound 0.01 µM): 0.279
relative viability (Gemcitabine + Crizotinib; first compound 0.03162 µM): 0.145
relative viability (Gemcitabine + Crizotinib; first compound 0.1 µM): 0.123
relative viability (Gemcitabine + Navitoclax; first compound 0.001 µM): 0.789
relative viability (Gemcitabine + Navitoclax; first compound 0.003162 µM): 0.317
relative viability (Gemcitabine + Navitoclax; first compound 0.01 µM): 0.111
relative viability (Gemcitabine + Navitoclax; first compound 0.03162 µM): 0.0922
relative viability (Gemcitabine + Navitoclax; first compound 0.1 µM): 0.0731
relative viability (Gemcitabine + Linsitinib; first compound 0.001 µM): 0.948
relative viability (Gemcitabine + Linsitinib; first compound 0.003162 µM): 0.618
relative viability (Gemcitabine + Linsitinib; first compound 0.01 µM): 0.234
relative viability (Gemcitabine + Linsitinib; first compound 0.03162 µM): 0.129
relative viability (Gemcitabine + Linsitinib; first compound 0.1 µM): 0.0919
relative viability (Gemcitabine + Alpelisib; first compound 0.001 µM): 1.02
relative viability (Gemcitabine + Alpelisib; first compound 0.003162 µM): 0.415
relative viability (Gemcitabine + Alpelisib; first compound 0.01 µM): 0.224
relative viability (Gemcitabine + Alpelisib; first compound 0.03162 µM): 0.13
relative viability (Gemcitabine + Alpelisib; first compound 0.1 µM): 0.12
relative viability (Gemcitabine + Pictilisib; first compound 0.001 µM): 0.994
relative viability (Gemcitabine + Pictilisib; first compound 0.003162 µM): 0.705
relative viability (Gemcitabine + Pictilisib; first compound 0.01 µM): 0.223
relative viability (Gemcitabine + Pictilisib; first compound 0.03162 µM): 0.162
relative viability (Gemcitabine + Pictilisib; first compound 0.1 µM): 0.108

A549
relative viability (Gemcitabine; 0.001 µM): 1.03
relative viability (Gemcitabine; 0.003162 µM): 0.894
relative viability (Gemcitabine; 0.01 µM): 0.0734
relative viability (Gemcitabine; 0.03162 µM): 0.0244
relative viability (Gemcitabine; 0.1 µM): 0.0209
relative viability (Gemcitabine + Olaparib; first compound 0.001 µM): 0.296
relative viability (Gemcitabine + Olaparib; first compound 0.003162 µM): 0.279
relative viability (Gemcitabine + Olaparib; first compound 0.01 µM): 0.0098
relative viability (Gemcitabine + Olaparib; first compound 0.03162 µM): 0.0228
relative viability (Gemcitabine + Olaparib; first compound 0.1 µM): 0.014
relative viability (Gemcitabine + Lapatinib; first compound 0.001 µM): 0.967
relative viability (Gemcitabine + Lapatinib; first compound 0.003162 µM): 0.747
relative viability (Gemcitabine + Lapatinib; first compound 0.01 µM): 0.249
relative viability (Gemcitabine + Lapatinib; first compound 0.03162 µM): 0.0488
relative viability (Gemcitabine + Lapatinib; first compound 0.1 µM): 0.033
relative viability (Gemcitabine + Foretinib; first compound 0.001 µM): 0.998
relative viability (Gemcitabine + Foretinib; first compound 0.003162 µM): 0.901
relative viability (Gemcitabine + Foretinib; first compound 0.01 µM): 0.616
relative viability (Gemcitabine + Foretinib; first compound 0.03162 µM): 0.0177
relative viability (Gemcitabine + Foretinib; first compound 0.1 µM): 0.0104
relative viability (Gemcitabine + Crizotinib; first compound 0.001 µM): 0.858
relative viability (Gemcitabine + Crizotinib; first compound 0.003162 µM): 0.377
relative viability (Gemcitabine + Crizotinib; first compound 0.01 µM): 0.229
relative viability (Gemcitabine + Crizotinib; first compound 0.03162 µM): 0.0341
relative viability (Gemcitabine + Crizotinib; first compound 0.1 µM): 0.0206
relative viability (Gemcitabine + Phenformin; first compound 0.001 µM): 0.158
relative viability (Gemcitabine + Phenformin; first compound 0.003162 µM): 0.0726
relative viability (Gemcitabine + Phenformin; first compound 0.01 µM): 0.0184
relative viability (Gemcitabine + Phenformin; first compound 0.03162 µM): 0.0201
relative viability (Gemcitabine + Phenformin; first compound 0.1 µM): 0.0216
relative viability (Gemcitabine + Navitoclax; first compound 0.001 µM): 1.21
relative viability (Gemcitabine + Navitoclax; first compound 0.003162 µM): 1.1
relative viability (Gemcitabine + Navitoclax; first compound 0.01 µM): 0.0375
relative viability (Gemcitabine + Navitoclax; first compound 0.03162 µM): 0.0126
relative viability (Gemcitabine + Navitoclax; first compound 0.1 µM): 0.0108
relative viability (Gemcitabine + Linsitinib; first compound 0.001 µM): 0.705
relative viability (Gemcitabine + Linsitinib; first compound 0.003162 µM): 0.356
relative viability (Gemcitabine + Linsitinib; first compound 0.01 µM): 0.0342
relative viability (Gemcitabine + Linsitinib; first compound 0.03162 µM): 0.0143
relative viability (Gemcitabine + Linsitinib; first compound 0.1 µM): 0.0157
relative viability (Gemcitabine + Decitabine; first compound 0.001 µM): 0.292
relative viability (Gemcitabine + Decitabine; first compound 0.003162 µM): 0.274
relative viability (Gemcitabine + Decitabine; first compound 0.01 µM): 0.0559
relative viability (Gemcitabine + Decitabine; first compound 0.03162 µM): 0.0266
relative viability (Gemcitabine + Decitabine; first compound 0.1 µM): 0.0227
relative viability (Gemcitabine + Alpelisib; first compound 0.001 µM): 0.919
relative viability (Gemcitabine + Alpelisib; first compound 0.003162 µM): 0.276
relative viability (Gemcitabine + Alpelisib; first compound 0.01 µM): 0.0341
relative viability (Gemcitabine + Alpelisib; first compound 0.03162 µM): 0.0189
relative viability (Gemcitabine + Alpelisib; first compound 0.1 µM): 0.0253
relative viability (Gemcitabine + Pictilisib; first compound 0.001 µM): 0.74
relative viability (Gemcitabine + Pictilisib; first compound 0.003162 µM): 0.367
relative viability (Gemcitabine + Pictilisib; first compound 0.01 µM): 0.0384
relative viability (Gemcitabine + Pictilisib; first compound 0.03162 µM): 0.0238
relative viability (Gemcitabine + Pictilisib; first compound 0.1 µM): 0.0155
